This note sets out measurements from patent publication US11623924B2, “Modulators of alpha-1 antitrypsin” (Vertex Pharmaceuticals Incorporated, priority 2018, dated 2023).

Where two headings read alike, the source gives them in different places.

For the assay, the target named is T1, NL20 human bronchial epithelial cells expressing human Z-AAT (Homo sapiens, UniProt P01009, E366K).
T1 construct: expressed in transfected cells; host or cells: NL20 human bronchial epithelial cells (NL20-SI line, doxycycline added)
T1 sequence (P01009 25-418 E366K): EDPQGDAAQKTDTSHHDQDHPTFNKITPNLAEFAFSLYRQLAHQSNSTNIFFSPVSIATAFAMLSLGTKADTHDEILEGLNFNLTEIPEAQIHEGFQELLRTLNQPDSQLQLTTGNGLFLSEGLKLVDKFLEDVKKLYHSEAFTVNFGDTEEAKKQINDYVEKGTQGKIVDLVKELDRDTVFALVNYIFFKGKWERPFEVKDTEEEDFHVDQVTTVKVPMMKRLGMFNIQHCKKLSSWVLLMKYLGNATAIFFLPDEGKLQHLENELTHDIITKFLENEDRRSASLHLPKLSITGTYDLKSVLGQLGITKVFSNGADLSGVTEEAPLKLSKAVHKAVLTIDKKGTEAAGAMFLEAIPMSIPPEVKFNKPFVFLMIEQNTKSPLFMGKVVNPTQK
Briefly: AAT Function Assay (MSD Assay NL20-SI Cell Line). The settings on record: functionally active AAT (AAT-hNE complex) in supernatant of NL20 cells expressing human Z-AAT. The class given is cell-based. The protocol: A. AAT Function Assay (MSD Assay NL20-SI Cell Line)
Alpha-1 antitrypsin (AAT) is a SERPIN (serine protease inhibitor) that inactivates enzymes by binding to them covalently. This assay measured the amount of functionally active AAT in a sample in the presence of the disclosed compounds 1-215 by determining the ability of AAT to form an irreversible complex with human neutrophil Elastase (hNE). In practice, the sample (cell supernatant, blood sample, or other) was incubated with excess hNE to allow AAT-Elastase complex to be formed with all functional AAT in the sample. This complex was then captured to a microplate coated with an anti-AAT antibody. The complex captured to the plate was detected with a labeled anti-Elastase antibody and quantitated using a set of AAT standards spanning the concentration range present in the sample. Meso Scale Discovery (MSD) plate reader, Sulfo-tag labeling, and microplates were used to provide high sensitivity and wide dynamic range.
• 1. Harvest NL20 human bronchial epithelial cells expressing human Z-AAT in OptiMEM™ containing Pen/Strep (P/S) • 2. Seed at 16,000 cells/well in 30 μL (384 well plate) • 3. Centrifuge plates briefly up to speed (1200 rpm) and place into 37° C. incubator overnight Day 2: Compound Addition and Coating Plates with Capture Antibody Compound Addition: • 1. Dispense 40 μL of OptiMEM™ (P/S) with doxycycline (1:1000 stock=0.1 μM final) to each well of the compound plate using a multidrop Combi in hood • 2. Remove cell plate from incubator, flip/blot and take immediately to Bravo to transfer compounds • 3. Return plates to incubator overnight Coat MSD Plates • 1. Dilute capture antibody (Polyclonal Goat anti-AAT) to 5 μg/mL (1:200) in PBS (no BSA). • 2. Dispense 25 μL of diluted capture antibody into all wells of MSD 384-well High Bind plate using the Multidrop equipped with a standard cassette. • 3. Incubate overnight at 4° C. Prepare Blocker A (BSA) Solutions • 1. Prepare solution of 5% MSD Blocker A (BSA) following the manufacturer's instructions. • 2. Further dilute the 5% MSD Blocker A in PBS to 1% (Blocker A) as needed. Day 3: Run MSD Assay
Block Plates • 1. Wash plate 1× with 50 μL Wash buffer (PBS+0.5% Tween 20), and adds 35 μL 5% Block A buffer to block non-specific binding on washer dispenser • 2. Rotate plates on shaker for 1 hour at 600 rpm
Prepare M-AAT Standards • 1. Dilute M-AAT stock to 1.6 μg/mL in 1% BSA Blocker A (Stock in −70° C.); then prepare 12×1:2 serial dilutions in 1% Blocker A • 2. The top starting final concentration on MSD plate is 320 ng/mL. These dilutions correspond to a final concentration of 320, 160, 80, 40, 20, 10, 5, 2.5, 1.25, 0.625, 0.312, 0.156 ng/mL.
Dilution Plate • 1. Add 80 μL of 1% Assay buffer to all wells except columns 1/24 (standards) with Multidrop Combi • 2. Add diluted standards to columns 1 and 24 • 3. Centrifuge dilution plates 1200 rpm briefly
Cell Plate • 1. Aspirate columns which will have the standards from the cell plates in the hood using 16-pin aspirator
Prepare Human Neutrophil Elastase (hNE) • 1. Prepare 1 μg/mL Human Neutrophil Elastase by diluting in 1% Blocker A. • a. Small 100 μg vial—add 1 mL PBS (100 μg/mL) • i. This can then be diluted 1:100 in 1% Assay Buffer for a final 1 μg/mL concentration
MSD—Add hNE (20 μL/well) • 1. After the MSD plate has blocked for at least 1 hour, wash plate 1× with 50 μL Wash buffer (PBS+0.5% Tween 20) and then add 20 μL hNE to each well
Bravo—Cell Plate—Dilution Plate—MSD Plate
Using the Bravo aspirate 10 μL from the cell plate, transfer to the dilution plate (9-fold dilution)
• 1. Mix 25 μL 3×, then aspirate 5 μL, transfer to MSD plate (5-fold dilution) • 2. Mix 10 μL 3×. Total dilution is 45 fold. • 3. Shake plates at 600 rpm for 1.5 hours
Add Functional detection hNE antibody • 1. Wash plate 1× with wash buffer • 2. […]

The EC50 is the concentration at which the effect is half-maximal. With `Cc1cc(-n2c(C(C)C)c(C3CC(C(=O)O)C3)c3cc4[nH]ncc4cc32)ccc1F` (mixture of isomers) [Compound 18], where the note is “read-out: NL20 Func. (EC50)”, the EC50 was < 1.16 µM.

As to `Cc1cc(-n2c(C3CCOCC3)c([C@H]3C[C@@H](CC(=O)O)C3)c3cc4[nH]ncc4cc32)ccc1F` (single isomer, unassigned) [Compound 95], where the note is “read-out: NL20 Func. (EC50)”, the EC50 was in the range of 1.16 to 3 µM.

On to `Cc1cc(-n2c(C(C)C)c(N3CCCC3=O)c3cc4[nH]ncc4cc32)ccc1F` [Compound 8, 1-[5-(4-fluoro-3-methyl-phenyl)-6-isopropyl-1H-pyrrolo[2,3-f]indazol-7-yl]pyrrolidin-2-one], for which the EC50 (read-out: NL20 Func. (EC50)) was > 3 µM.

Take `Cc1cc(-n2c(C(C)C)cc3cc4[nH]ncc4cc32)ccn1` [Compound 43, 6-isopropyl-5-(2-methyl-4-pyridyl)-1H-pyrrolo[2,3-f]indazole]: the EC50 (read-out: NL20 Func. (EC50)) was > 3 µM.

As for `Cc1cc(-n2c(C3CCOCC3)c(C3CC4(CC(C(=O)O)C4)C3)c3cc4[nH]nc(C)c4cc32)ccc1F` (single isomer, unassigned) [Compound 128, 6-[5-(4-fluoro-3-methyl-phenyl)-3-methyl-6-tetrahydropyran-4-yl-1H-pyrrolo[2,3-f]indazol-7-yl]spiro[3.3]heptane-2-carboxylic acid], for the setting “read-out: NL20 Func. (EC50)”, the EC50 was 1.16 to 3 µM.

Take `CC(C)c1c(CCC(=O)N[C@@H]2C(=O)NC[C@H]2O)c2cc3[nH]ncc3cc2n1-c1ccc(F)cc1` (stereo in doubt) [Compound 211, 3-[5-(4-fluorophenyl)-6-isopropyl-1H-pyrrolo[2,3-f]indazol-7-yl]-N-[(3S,4R)-4-hydroxy-2-oxo-pyrrolidin-3-yl]propanamide]: the EC50 (read-out: NL20 Func. (EC50)) was > 3 µM.

As to `O=C(O)C1CC2(C1)CC(c1c(C3CCOCC3)n(-c3ccc(F)c(F)c3)c3cc4c(Cl)n[nH]c4cc13)C2` (stereo not drawn) [Compound 130, 6-[3-chloro-5-(3,4-difluorophenyl)-6-tetrahydropyran-4-yl-1H-pyrrolo[2,3-f]indazol-7-yl]spiro[3.3]heptane-2-carboxylic Acid], the EC50 (read-out: NL20 Func. (EC50)) is < 1.16 µM.

Take `Cc1cc(-n2c(C3CCOCC3)c([C@H]3C[C@H](C(=O)O)C3)c3cc4[nH]ncc4cc32)ccc1F` [Compound 100]: the EC50 (read-out: NL20 Func. (EC50)) lay in the range of 1.16 to 3 µM.

Take `O=C(O)C1CC2(C1)CC(c1c(C3CCOCC3)n(-c3ccc(F)cc3)c3cc4cn[nH]c4cc13)C2` (racemic) [Compound 108, 6-(5-(4-fluorophenyl)-6-(tetrahydro-2H-pyran-4-yl)-1,5-dihydropyrrolo[2,3-f]indazol-7-yl)spiro[3.3]heptane-2-carboxylic Acid]: for the setting “read-out: NL20 Func. (EC50)”, the EC50 was 1.16 to 3 µM.

Take `Cc1cc(-n2c(C(C)C)c(CCC(=O)O)c3cc4c(cnn4C)cc32)ccc1F` [Compound 195, 3-[5-(4-fluoro-3-methyl-phenyl)-6-isopropyl-1-methyl-pyrrolo[2,3-f]indazol-7-yl]propanoic Acid]: the EC50 (read-out: NL20 Func. (EC50)) was > 3 µM.

For the compound `Cc1cc(-n2c(C3(C)COC3)c(S(C)(=O)=O)c3cc4[nH]ncc4cc32)ccc1F` [Compound 139, 5-(4-fluoro-3-methyl-phenyl)-6-(3-methyloxetan-3-yl)-7-methylsulfonyl-1H-pyrrolo[2,3-f]indazole], the EC50 (read-out: NL20 Func. (EC50)) was > 3 µM.

Take `CCOC(=O)c1c(C(C)C)n(-c2ccc(F)c(C)c2)c2cc3cn[nH]c3cc12` [Compound 2, ethyl 5-(4-fluoro-3-methyl-phenyl)-6-isopropyl-1H-pyrrolo[2,3-f]indazole-7-carboxylate]: for the setting “read-out: NL20 Func. (EC50)”, the EC50 was > 3 µM.

Regarding `NC(=O)CCc1c(C2CCOCC2)n(-c2ccc(F)cc2)c2cc3cn[nH]c3cc12` [Compound 166, 3-[5-(4-fluorophenyl)-6-tetrahydropyran-4-yl-1H-pyrrolo[2,3-f]indazol-7-yl]propanamide], the EC50 (read-out: NL20 Func. (EC50)) is > 3 µM.

For the compound `Cc1cc(-n2c(C(C)C)c(C(C)CC(=O)O)c3cc4[nH]ncc4cc32)ccc1F` (single isomer, unassigned) [Compound 28], the EC50 (read-out: NL20 Func. (EC50)) was < 1.16 µM.

As to `CCNC(=O)c1c(C(C)C)n(-c2ccc(F)c(C)c2)c2cc3cn[nH]c3cc12` [Compound 6, N-ethyl-5-(4-fluoro-3-methyl-phenyl)-6-isopropyl-1H-pyrrolo[2,3-f]indazole-7-carboxamide], the EC50 (read-out: NL20 Func. (EC50)) is > 3 µM.

As for `CCOC(=O)[C@@H]1C[C@@H]1c1c(C(C)C)n(-c2ccc(F)c(C)c2)c2cc3cn[nH]c3cc12` (racemic) [Compound 15, ethyl (1R,2S)-2-[5-(4-fluoro-3-methyl-phenyl)-6-isopropyl-1H-pyrrolo[2,3-f]indazol-7-yl]cyclopropanecarboxylate], under “read-out: NL20 Func. (EC50)”, the EC50 was > 3 µM.

Take `CC(C)c1c(C2CC3(CC(C(=O)O)C3)C2)c2cc3[nH]ncc3cc2n1-c1ccc(F)cc1` (racemic) [Compound 34, 6-[5-(4-fluorophenyl)-6-isopropyl-1H-pyrrolo[2,3-f]indazol-7-yl]spiro[3.3]heptane-2-carboxylic acid]: where the note is “read-out: NL20 Func. (EC50)”, the EC50 was < 1.16 µM.

`CC(C)c1c(C#N)c2cc3[nH]ncc3cc2n1-c1ccccc1` [Compound 42, 6-isopropyl-5-phenyl-1H-pyrrolo[2,3-f]indazole-7-carbonitrile] returned an EC50 (NL20 Func. (EC50)) of 1.16 to 3 µM.

As for `N#CCCCc1c(C2CCOCC2)n(-c2ccc(F)cc2)c2cc3cn[nH]c3cc12` [Compound 148], for the setting “read-out: NL20 Func. (EC50)”, the EC50 lay within 1.16 to 3 µM.

`O=C(O)[C@H]1CC[C@H](Cc2c(C3CCOCC3)n(-c3ccc(F)cc3)c3cc4cn[nH]c4cc23)CC1` [Compound 119]: the EC50 (read-out: NL20 Func. (EC50)) was 1.16 to 3 µM.

For the compound `[H][C@]1(C(=O)O)C[C@]2(C1)C[C@]([H])(c1c(C3CCOCC3)n(-c3ccc(F)c(C)c3)c3cc4cn[nH]c4cc31)C2` (single isomer, unassigned) [Compound 92], where the note is “read-out: NL20 Func. (EC50)”, the EC50 is < 1.16 µM.

Turning to `Cc1cc(-n2c(C(C)C)c(C(=O)NC3COC3)c3cc4[nH]ncc4cc32)ccc1F` [Compound 7, 5-(4-fluoro-3-methyl-phenyl)-6-isopropyl-N-(oxetan-3-yl)-1H-pyrrolo[2,3-f]indazole-7-carboxamide], where the note is “read-out: NL20 Func. (EC50)”, the EC50 was > 3 µM.

As for `O=C(O)C1CC2(C1)CC(c1c(C3CCOCC3)n(-c3ccc(F)cc3)c3cc4cn[nH]c4c(F)c13)C2` (racemic) [Compound 135, 6-[8-fluoro-5-(4-fluorophenyl)-6-tetrahydropyran-4-yl-1H-pyrrolo[2,3-f]indazol-7-yl]spiro[3.3]heptane-2-carboxylic acid], the EC50 (read-out: NL20 Func. (EC50)) was < 1.16 µM.

In the case of `O=C(O)[C@H]1C[C@@H](Cc2c(C3CCOCC3)n(-c3ccc(F)cc3)c3cc4cn[nH]c4cc23)C1` [Compound 117], the EC50 (read-out: NL20 Func. (EC50)) fell in the range of 1.16 to 3 µM.

In the case of `Cc1cccc(-n2c(C(C)C)c(C#N)c3cc4[nH]ncc4cc32)c1` [Compound 44, 6-isopropyl-5-(m-tolyl)-1H-pyrrolo[2,3-f]indazole-7-carbonitrile], under “NL20 Func. (EC50)”, the EC50 is > 3 µM.

On to `Cc1cc(-n2c(C(C)C)c(C3CC4(CC(C(=O)O)C4)C3)c3c(F)c4[nH]nc(C)c4cc32)ccc1F` (racemic) [Compound 59, 6-[8-fluoro-5-(4-fluoro-3-methyl-phenyl)-6-isopropyl-3-methyl-1H-pyrrolo[2,3-f]indazol-7-yl]spiro[3.3]heptane-2-carboxylic Acid], for which the EC50 (read-out: NL20 Func. (EC50)) is < 1.16 µM.

For the compound `[H][C@]1(C(=O)O)C[C@]2(C1)C[C@@]([H])(c1c(C3CCOCC3)n(-c3ccc(F)cc3)c3cc4cn[nH]c4cc31)C2` (single isomer, unassigned) [Compound 109], the EC50 (read-out: NL20 Func. (EC50)) is 1.16 to 3 µM.
